Data as given in patent publication US20050288273A1, “Antibacterial agents” (priority 2003, published 2005).
Converted amounts (≈) assume the structure as drawn.

Legend:
S. aureus UC-76 = assay: Antibacterial assay (MIC), standard microtitration, Gram positive; type: cell-based; conditions: Gram positive bacteria; for MIC: Staphylococcus aureus, UC76, read-out: Minimum Inhibitory Concentrations S. aureus UC-76
Excerpt: (§1) Test A—Antibacterial Assays

E. faecalis MGH-2 = assay: as above; type: cell-based; conditions: Gram positive bacteria; for MIC: Enterococcus faecalis, MGH2, read-out: Minimum Inhibitory Concentrations E. faecalis MGH-2
Excerpt: as §1

S pyogenes C203 = assay: as above; type: cell-based; conditions: Gram positive bacteria; for MIC: read-out: Minimum Inhibitory Concentrations S pyogenes C203
Excerpt: as §1

H. influenzae HI3542 = assay: Antibacterial assay (MIC), standard microtitration, Gram negative; type: cell-based; conditions: Gram negative bacteria; for MIC: Haemophilus influenzae, HI3542, read-out: Minimum Inhibitory Concentrations H. influenzae HI3542
Excerpt: as §1

E. coli Tol C = assay: as above; type: cell-based; conditions: for Minimum Inhibitory Concentrations E. coli Tol C: Gram negative bacteria; for MIC: Escherichia coli, read-out: Minimum Inhibitory Concentrations E. coli Tol C
Excerpt: as §1

M. catarrhalis BC3534 = assay: as above; type: cell-based; conditions: Gram negative bacteria; for MIC: Moraxella catarrhalis, BC3534, read-out: Minimum Inhibitory Concentrations M. catarrhalis BC3534
Excerpt: as §1

Compound | melting point [°C] | MIC (S. aureus UC-76) [µg/mL] | MIC (E. faecalis MGH-2) [µg/mL] | MIC (S pyogenes C203) [µg/mL] | MIC (H. influenzae HI3542) [µg/mL] | MIC (E. coli Tol C) [µg/mL] | MIC (M. catarrhalis BC3534) [µg/mL] | other results
O=C(NC[C@H]1CN(c2ccc3c(c2)CCCc2cn[nH]c2-3)C(=O)O1)c1ccccc1 | 105 to 125 | – | – | – | – | – | – | –
O=C(CC(F)(F)F)NC[C@H]1CN(c2ccc3c(c2)CCCc2cn[nH]c2-3)C(=O)O1 | 243 to 245 | – | – | – | – | – | – | –
COC(=O)NC[C@H]1CN(c2ccc3c(c2)CCCc2cnoc2-3)C(=O)O1 | 166 to 168 | – | – | – | – | – | – | –
CCOC(=O)NC[C@H]1CN(c2ccc3c(c2)CCCc2cnoc2-3)C(=O)O1 | 181 to 183 | – | – | – | – | – | – | –
CCNC(=O)NC[C@H]1CN(c2ccc3c(c2)CCCc2cnoc2-3)C(=O)O1 | 193 to 196 | – | – | – | – | – | – | –
COC(=O)NC[C@H]1CN(c2ccc3c(c2)CCCc2cn[nH]c2-3)C(=O)O1 | 87 to 93 | – | – | – | – | – | – | –
CCOC(=O)NC[C@H]1CN(c2ccc3c(c2)CCCc2cn[nH]c2-3)C(=O)O1 | 122 to 126 | – | – | – | – | – | – | –
CN(C)/C=C1/CCCc2cc(N3C[C@H](CNC(=O)OC(C)(C)C)OC3=O)ccc2C1=O (stereo in doubt) | 157 to 160 | – | – | – | – | – | – | –
O=C1O[C@@H](CNC(=O)C(F)(F)F)CN1c1ccc2c(c1)CCCc1cnoc1-2 (stereo in doubt) | 203 to 205 | – | – | – | – | – | – | –
CC(=O)NC[C@H]1CN(c2ccc3c(c2)-c2[nH]ncc2CCC3)C(=O)O1 [Example 1, (S)-N-[2-Oxo-3-(1,4,5,6-tetrahydro-1,2-diaza-benzo[e]azulen-9-yl)oxalidin-5-ylmethyl]acetamide] | – | – | – | – | – | – | – | Minimum Inhibitory Concentrations S. aureus UC-76 (S. aureus UC-76): >64 µg/mL; Minimum Inhibitory Concentrations E. faecalis MGH-2 (E. faecalis MGH-2): >64 µg/mL; Minimum Inhibitory Concentrations S pyogenes C203 (S pyogenes C203): >64 . . . μg/mL; Minimum Inhibitory Concentrations H. influenzae HI3542 (H. influenzae HI3542): >64 µg/mL; Minimum Inhibitory Concentrations E. coli Tol C (E. coli Tol C): >64 µg/mL; Minimum Inhibitory Concentrations M. catarrhalis BC3534 (M. catarrhalis BC3534): >64 µg/mL
CC(=O)NC[C@H]1CN(c2ccc3c(c2)-c2oncc2CCC3)C(=O)O1 [Example 4, (S)-N-[3-(5,6-dihydro-4H-1-oxa-2-aza-benzo[e]azulen-9-yl)-2-oxo-oxazolidin-5-ylmethyl]acetamide] | – | 0.5 (≈ 1.46 µM) | 0.25 (≈ 0.732 µM) | 0.125 (≈ 0.366 µM) | 2 (≈ 5.86 µM) | > 64 | 1 (≈ 2.93 µM) | –
CC(=O)NC[C@H]1CN(c2ccc3c(c2)CCCc2c(-c4ccc(F)cc4)n[nH]c2-3)C(=O)O1 [Example 95, (S)-N-{3-[3-(4-Fluoro-phenyl)-1,4,5,6-tetrahydro-1,2-diaza-benzo[e]azulen-8-yl]-2-oxo-oxazolidin-5-ylmethyl}-acetamide] | – | 4 (≈ 9.21 µM) | 0.5 (≈ 1.15 µM) | 0.5 (≈ 1.15 µM) | 8 (≈ 18.4 µM) | > 64 | 1 (≈ 2.3 µM) | –
CC(=O)NC[C@H]1CN(c2ccc3c(c2)CCCc2c(-c4ccncc4)n[nH]c2-3)C(=O)O1 [Example 96, (S)-N-[2-Oxo-3-(3-pyridin-4-yl-1,4,5,6-tetrahydro-1,2-diaza-benzo[e]azulen-8-yl)-oxazolidin-5-ylmethyl]-acetamide] | – | 2 (≈ 4.79 µM) | 1 (≈ 2.4 µM) | 0.25 (≈ 0.599 µM) | 4 (≈ 9.58 µM) | > 64 | 2 (≈ 4.79 µM) | –
CC(=O)NC[C@H]1CN(c2ccc3c(c2)CCCc2c(C(F)(F)F)n[nH]c2-3)C(=O)O1 [Example 97, (S)-N-[2-Oxo-3-(3-trifluoromethyl-1,4,5,6-tetrahydro-1,2-diaza-benzo[e]azulen-8-yl)-oxazolidin-5-ylmethyl]-acetamide] | – | 1 (≈ 2.45 µM) | 1 (≈ 2.45 µM) | 0.5 (≈ 1.22 µM) | > 4 | > 64 | 2 (≈ 4.9 µM) | –
CC(=O)NC[C@H]1CN(c2ccc3c(c2)CCCc2c(-c4ccccc4)n[nH]c2-3)C(=O)O1 [Example 98, (S)-N-[2-Oxo-3-(3-phenyl-1,4,5,6-tetrahydro-1,2-diaza-benzo[e]azulen-8-yl)-oxazolidin-5-ylmethyl]-acetamide] | – | 0.5 (≈ 1.2 µM) | 0.5 (≈ 1.2 µM) | 0.5 (≈ 1.2 µM) | 8 (≈ 19.2 µM) | > 64 | 2 (≈ 4.8 µM) | –
CC(=O)NC[C@H]1CN(c2ccc3c(c2)CCCc2c(C)n[nH]c2-3)C(=O)O1 [Example 99, (S)-N-[3-(3-Methyl-1,4,5,6-tetrahydro-1,2-diaza-benzo[e]azulen-8-yl)-2-oxo-oxazolidin-5-ylmethyl]-acetamide] | – | 1 (≈ 2.82 µM) | 1 (≈ 2.82 µM) | 0.5 (≈ 1.41 µM) | 4 (≈ 11.3 µM) | > 64 | 4 (≈ 11.3 µM) | –
CC(=O)NC[C@H]1CN(c2ccc3c(c2)CCCc2cn(C)nc2-3)C(=O)O1 [Example 122, (S)-N-[3-(2-Methyl-2,4,5,6-tetrahydro-1,2-diaza-benzo[e]azulen-8-yl)-2-oxo-oxazolidin-5-ylmethyl]-acetamide] | – | 1 (≈ 2.82 µM) | 1 (≈ 2.82 µM) | 0.5 (≈ 1.41 µM) | > 64 | > 64 | > 64 | –
O=C1O[C@@H](COc2ccon2)CN1c1ccc2c(c1)CCCc1cn[nH]c1-2 [Example 158, (R)-5-(Isoxazol-3-yloxymethyl)-3-(1,4,5,6-tetrahydro-1,2-diaza-benzo[e]azulen-8-yl)-oxazolidin-2-one] | – | 1 (≈ 2.73 µM) | 2 (≈ 5.46 µM) | 1 (≈ 2.73 µM) | > 64 | > 64 | 8 (≈ 21.8 µM) | –
O=C1O[C@@H](COc2ccon2)CN1c1ccc2c(c1)CCCc1cnoc1-2 [Example 159, (R)-3-(5,6-Dihydro-4H-1-oxa-2-aza-benzo[e]azulen-8-yl)-5-(isoxazol-3-yloxymethyl)-oxazolidin-2-one] | – | 4 (≈ 10.9 µM) | 2 (≈ 5.44 µM) | 2 (≈ 5.44 µM) | – | – | – | –
O=C1O[C@@H](COc2ccccn2)CN1c1ccc2c(c1)CCCc1cn[nH]c1-2 [Example 164, (R)-5-(Pyridin-2-yloxymethyl)-3-(1,4,5,6-tetrahydro-1,2-diaza-benzo[e]azulen-8-yl)-oxazolidin-2-one] | – | 4 (≈ 10.6 µM) | 4 (≈ 10.6 µM) | 2 (≈ 5.31 µM) | > 64 | > 64 | > 64 | –
O=C1O[C@@H](COc2ccccn2)CN1c1ccc2c(c1)CCCc1cnoc1-2 [Example 165, (R)-3-(5,6-Dihydro-4H-1-oxa-2-aza-benzo[e]azulen-8-yl)-5-(pyridin-2-yloxymethyl)-oxazolidin-2-one] | – | 4 (≈ 10.6 µM) | 4 (≈ 10.6 µM) | 2 (≈ 5.3 µM) | > 64 | > 64 | > 64 | –
(S)-N-[3-(2-Benzyl-2,4,5,6-tetrahydro-1,2-diaza-benzo[e]azulen-8-yl)-2-oxo-oxazolidin-5-ylmethyl]-acetamide and (S)-N-[3-(1-Benzyl-1,4,5,6-tetrahydro-1,2-diaza-benzo[e]azulen-8-yl)-2-oxo-oxazolidin-5-ylmethyl]-acetamide [Example 123] | – | – | – | – | – | – | – | Minimum Inhibitory Concentrations H. influenzae HI3542 (H. influenzae HI3542): >64 µg/mL; Minimum Inhibitory Concentrations E. coli Tol C (E. coli Tol C): >64 µg/mL; Minimum Inhibitory Concentrations M. catarrhalis BC3534 (M. catarrhalis BC3534): >64 µg/mL
